Source: patent publication US12570627B2, “Pharmaceutical composition in which production of impurities is suppressed” (Shionogi & Co., Ltd., priority 2020, dated 2026)
“And” between values parts separate entries of the source, which are not always exact repeats. Equal values may be shown once. One block for each compound: values may come before it.

Key:
Assay type in all cases: physicochemical
[1] = Measurement of content ratio of compound represented by Formula (III) contained in crystal (Test Example 1); details: crystal as produced
Procedure: The content ratio of the compound represented by Formula (III) in the dihydrate crystal of the compound represented by Formula (I) produced in Example L was determined by the following method.
In Examples 1 to 4 and 6 and Reference Examples 1 to 2, the content ratio was determined in the same manner.
(§1) A standard sample of the compound represented by Formula (III) was prepared by the following method, • Step 1: About 25 µg of the compound represented by Formula (III) was weighed precisely, and dissolved in a mixed solution of N,N-dimethylformamide and water (9:1) to make exactly 20 mL, • Step 2: One milliliter of the solution of Step 1 was accurately taken, and a mixed solution of N,N-dimethylformamide and water (9:1) was added to make exactly 50 mL. • Step 3: Two milliliters of the solution of Step 2 was accurately taken, and a mixed solution of N,N-dimethylformamide and water (9:1) was added to make exactly 20 mL, thereby obtaining a standard solution. (Preparation of Sample Solution)
(§2) About 125 to 600 mg of a sample was weighed precisely, and dissolved by adding a mixed solution of N,N-dimethylformamide and water (9:1) to make exactly 5 mL.
(§3) An amount of the compound represented by Formula (III) was measured with a liquid chromatograph according to the following method and conditions. • Measuring instrument: UHPLC (NexeraX2, SHIMADZU) • Detector: UV • Measurement wavelength: 271 nm • Column: ACQUITY UPLC BEH SHIELD PR18, 1.7 μm (2.1×100 mm) • Column temperature: constant temperature at near 40° C. • Mobile phase A: 20 mmol/L potassium dihydrogen phosphate aqueous solution • Mobile phase B: acetonitrile for liquid chromatography • Feed of mobile phase: The mixing ratio of mobile phase A and mobile phase B was changed as shown in Table 1 to control concentration gradient.
(§4) • Flow rate: 0.3 mL/min • Injection amount 2 μL • Sample cooler temperature: 5° C. • Area measurement range: 11 minutes after injection • Needle washing solution: mixed solution of N,N-dimethylformamide and water (9:1) (Calculation Formula) Content (ppm) of compound represented by Formula(III)=MS/MT×AT/AS×1/2000×1000000 (Mathematical formula 4) • MS: Weighing amount (mg) of compound represented by Formula (III) • MT: Weighing amount (mg) of sample • AS: Peak area of compound represented by Formula (III) obtained from standard solution • AT: Peak area of compound represented by Formula (III) obtained from sample solution • 1/2000: Dilution ratio

[2] = 90% particle size distribution, laser diffraction HELOS & RODOS (Test Example 2); details: dispersion pressure 4 bar
Procedure: A 90% particle size distribution in the production method of Reference Example 1 was determined by the following method.
In Examples 1 to 6 and Reference Example 3, the 90% particle size distribution was determined in the same manner.
A 90% particle size distribution was measured according to the following method and conditions. • Measuring instrument: laser diffraction particle size distribution measuring apparatus (HELOS & RODOS, Sympatec GmbH) • Dispersion pressure: 4 bar • Feed: 50% • Rotation: 20% • Focal length: 50 mm • Trigger condition: reference duration 2 seconds • Time Base 100 ms • Start Optical concentration ≥1.0% • Stop Optical concentration ≤1.0% • Measurement range: R2

[3] = Measurement of content ratio of compound represented by Formula (III) contained in solution; increase during crystallization operation (Test Example 3); details: for Increased amount of content ratio of compound represented by Formula (III) during crystallization operation: total in filtrate and crystal minus solution before crystallization; for Total amount of the content ratio of compound represented by Formula (III) contained in the filtrate after filtration and the obtained crystal: after crystallization; for Content ratio of compound represented by Formula (III) in the solution before crystallization: reaction solution / dissolved anhydrate crystal
Procedure: The content ratio of the compound represented by Formula (JII) in the solution in the production method of Example 1 was determined by the following method.
In Example 4 and Reference Examples 2 to 3, the content ratio was determined in the same manner.
as §1, with “the following method. • Step” for “the following method, • Step”, “About 25 mg of the” for “About 25 µg of the”, “exactly 20 mL. • Step” for “exactly 20 mL, • Step”, “exactly 20 ml, thereby obtaining” for “exactly 20 mL, thereby obtaining”
About 60 to 1300 mg of a sample was weighed precisely, and dissolved by adding a mixed solution of N,N-dimethylformamide and water (9:1) to make exactly 5 mL.
as §3, with “SHIELD PF18,” for “SHIELD PR18,”, “Table 2” for “Table 1”
• Flow rate: 0.3 mL/min • Injection amount: 2 μL • Sample cooler temperature: 5° C. • Area measurement range: 11 minutes after injection • Needle washing solution: mixed solution of N,N-dimethylformamide and water (9:1) (Calculation formula) Content (ppm) of compound represented by Formula(III)=MS/MT×AT/AS×1/2000×YT/YS×1000000 (Mathematical formula 3) • MS: Weighing amount (mg) of compound represented by Formula (III) • MT: Weighing amount (mag) of sample • AS: Peak area of compound represented by Formula (III) obtained from standard solution • AT: Peak area of compound represented by Formula (III) obtained from sample solution • YS: Yield (g) of compound represented by Formula (I) • YT: Total weight (g) of sample • 1/2000: Dilution ratio

[4] = Stability testing of crystal (Test Example 4); details: for Content ratio of compound represented by Formula (III), 1M: protect from light, double polyethylene bag with desiccant, metal can
Procedure: as §1, §2, §3, §4
The samples obtained in Example 1 and Reference Example 1 were subjected to a stability testing to evaluate the content of the compound represented by Formula (III).
The storage conditions and the packaging form of Example 1 are shown in Table 3, and the storage conditions and the packaging form of Reference Example 1 are shown in Table 4.
Samples were placed in a polyethylene bag (Suntec-LD M2206 (additive free) 100×210×0.1 mm, TOWA KAKO CO., LTD.) and tightened with Convex (CV100N, SHIBAKEISOZAI CO., LTD.). This bag was further placed in a polyethylene (Suntec-LD M2206 (additive free) 100×210×0.1 mm, TOWA KAKO CO., LTD.) bag and similarly tightened with Convex (CV100N, SHIBAKEISOZAI CO., LTD.). The above samples under the same storage conditions were put together in a metal can (3dia, a stainless steel can with an inner diameter of 16 cm and a depth of 18 cm). • Double polyethylene bag, Convex (containing desiccant), metal can:
Samples were placed in a polyethylene bag (Suntec-LD M2206 (additive free) 100×210×0.1 mm, TOWA KAKO CO., LTD.) and tightened with Convex (CV100N, SHIBAKEISOZAI CO., LTD.). This bag was further placed in a polyethylene bag (Suntec-LD M2206 (additive free) 100×210×0.1 mm, TOWA KAKO) CO., LTD.) and similarly tightened with Convex (CV100N, SHIBAKEISOZAI CO., LTD.). The samples under the same storage conditions were put together in a metal can (3dia, a stainless steel can with an inner diameter of 16 cm and a depth of 18 cm) containing silica gel (using raw materials manufactured by Fuji Silysia Chemical Ltd., contained in 1 g bag).
The content of the compound represented by Formula (III) was confirmed in the same manner as in Test Example 1.

Content ratio of compound represented by Formula (III) in the obtained crystal [1]: 1.0 ppm
90% particle size distribution [2]: 7.17 μm
Compound: C[C@@H](Cn1c(=O)[nH]/c(=N\c2ccc(Oc3ccccn3)cc2)n(Cc2ccc(Cl)cc2)c1=O)C(=O)O [Example 2]

Content ratio of compound represented by Formula (III) in the obtained crystal [1]: 1.5 ppm
90% particle size distribution [2]: 6.48 μm
Compound: C[C@@H](Cn1c(=O)[nH]/c(=N\c2ccc(Oc3ccccn3)cc2)n(Cc2ccc(Cl)cc2)c1=O)C(=O)O [Example 3]

Content ratio of compound represented by Formula (III) in the obtained crystal [1]: 1.30 ppm
Increased amount of content ratio of compound represented by Formula (III) during crystallization operation [3]: 8.7 ppm
Compound: C[C@@H](Cn1c(=O)[nH]/c(=N\c2ccc(Oc3ccccn3)cc2)n(Cc2ccc(Cl)cc2)c1=O)C(=O)O [Example 4]

90% particle size distribution [2]: 27.57 μm
Compound: C[C@@H](Cn1c(=O)[nH]/c(=N\c2ccc(Oc3ccccn3)cc2)n(Cc2ccc(Cl)cc2)c1=O)C(=O)O [Example 5]

Content ratio of compound represented by Formula (III) in the obtained crystal [1]: 1.0 ppm
90% particle size distribution [2]: 61.22 μm
Compound: C[C@@H](Cn1c(=O)[nH]/c(=N\c2ccc(Oc3ccccn3)cc2)n(Cc2ccc(Cl)cc2)c1=O)C(=O)O [Example 6]

Content ratio of compound represented by Formula (III) in the obtained crystal [1]: not detected
Compound: C[C@@H](Cn1c(=O)[nH]/c(=N\c2ccc(Oc3ccccn3)cc2)n(Cc2ccc(Cl)cc2)c1=O)C(=O)O [Example L]
Content ratio of compound represented by Formula (III) in the obtained crystal ([1]; listed as dihydrate crystal of the compound represented by Formula (I)): not contained or is below a detection limit

Increased amount of compound represented by Formula (III) from the start of the test ([4]; 40±2° C./75±5% RH, 1 month): 12 ppm
Content ratio of compound represented by Formula (III), 3M ([4]; 40±2° C./75±5% RH, 3 months): 18 ppm
Increased amount of compound represented by Formula (III) from the start of the test ([4]; 40±2° C./75±5% RH, 3 months): 15 ppm
Content ratio of compound represented by Formula (III), 3M ([4]; 40 ± 2° C./75 ± 5% RH, 3 months, listed as Reference example 1): 18 ppm
Content ratio of compound represented by Formula (III), 1M ([4]; 40 ± 2° C./75 ± 5% RH, 1 month): 15 ppm
Content ratio of compound represented by Formula (III), 1M ([4]; 40 ± 2° C./75 ± 5% RH, 1 month, listed as Reference example 1): 15 ppm
Content ratio of compound represented by Formula (III), Initial ([4]; start of test): 3 ppm
90% particle size distribution [2]: 14.53 μm
Compound: C[C@@H](Cn1c(=O)[nH]/c(=N\c2ccc(Oc3ccccn3)cc2)n(Cc2ccc(Cl)cc2)c1=O)C(=O)O [Reference Example 1]

Content ratio of compound represented by Formula (III) in the obtained crystal [1]: 1.3 ppm and 1.30 ppm
Total amount of the content ratio of compound represented by Formula (III) contained in the filtrate after filtration and the obtained crystal [3]: 316.7 ppm
Content ratio of compound represented by Formula (III) in the solution before crystallization [3]: 178.9 ppm
Compound: C[C@@H](Cn1c(=O)[nH]/c(=N\c2ccc(Oc3ccccn3)cc2)n(Cc2ccc(Cl)cc2)c1=O)C(=O)O [Reference Example 2]

90% particle size distribution [2]: 169.84 μm
Total amount of the content ratio of compound represented by Formula (III) contained in the filtrate after filtration and the obtained crystal [3]: 252.5 ppm
Content ratio of compound represented by Formula (III) in the solution before crystallization [3]: 82.0 ppm
Increased amount of content ratio of compound represented by Formula (III) during crystallization operation [3]: 170.5 ppm
Compound: C[C@@H](Cn1c(=O)[nH]/c(=N\c2ccc(Oc3ccccn3)cc2)n(Cc2ccc(Cl)cc2)c1=O)C(=O)O [Reference Example 3]
